In patent publication US6989435B2, “Compounds and methods to inhibit or augment an inflammatory response” (Cambridge University Technical Services Ltd., priority 1997, dated 2006):

Assays:
[1] = test system: TGFβ1 induced human monocyte migration; assay: Human monocyte migration, TGFβ1 induced; assay type: cell-based
Experimental: Agents may also be screened in a chemotactic assay which employs human neutrophils, eosinophils, mast cells, basophils, platelets, lymphocytes or monocytes. For monocytes, 9 mls of fresh blood are transferred to a tube containing 1 ml of 3.8% sodium citrate, and left at room temperature for 15 minutes. Five mls of this anti-coagulated blood are carefully layered over 3.5 ml Polymorphprep® (Nycomed Pharma, Oslo), and centrifuged at 500 g for 35 minutes per the manufacturer's instructions. The top band at the sample/medium interface contains monocytes. The monocytes are carefully removed with a glass pipette, and reconstituted to the original volume (5 ml). The cells are washed with PBS plus 10% fetal calf serum, and centrifuged at 400 g for 10 minutes. The washing step is repeated three times before the cells are counted. Cells are resuspended at 1×10^7 cells/ml in RPMI-1640+10% fetal calf serum (FCS). The monocytes are cultured for two days at 37° C. in a humidified atmosphere of 5% CO2.
On day 2, the cells are counted, spun down, and reconstituted to 1×10^7 cells/ml in Gey's balanced salt solution+1 mg/ml bovine serum albumin (BSA). […]

[2] = test system: cultured smooth muscle cells; assay: Co-mitogenic effect of MCP-1 with 0.5% fetal calf serum; assay type: cell-based; details: 100 μM peptide
Experimental: Many chemokines are co-mitogenic with low concentrations of FCS, e.g., 50 ng/ml MCP-1+0.5% FCS is a mitogen for smooth muscle cells. Assays well known to the art for determination of DNA synthesis induced by any known chemokine plus a low concentration (<5%) of FCS on suitable cells (e.g., smooth muscle cells) in the presence and absence of the agent may be employed to screen agents for such inhibitory activity. See Porreca et al., J. Vasc. Res., 34, 58 (1997), the disclosure of which is incorporated by reference herein.
Peptide 3(1-12)[MCP-1] […] MCP-1 has been reported to be a weak co-mitogen with 0.5% fetal calf serum for cultured smooth muscle cells. […] (SEQ ID NO:1) is an MCP-1 receptor antagonist. The observation that peptide 3(1-12) [MCP-1]

[3] = target: T1, Duffy Antigen Receptor for Chemokines (DARC) (Homo sapiens, UniProt Q16570); assay: DARC binding: competition with 125I-labeled MCP-1 on red blood cells
T1 sequence (Q16570 1-336): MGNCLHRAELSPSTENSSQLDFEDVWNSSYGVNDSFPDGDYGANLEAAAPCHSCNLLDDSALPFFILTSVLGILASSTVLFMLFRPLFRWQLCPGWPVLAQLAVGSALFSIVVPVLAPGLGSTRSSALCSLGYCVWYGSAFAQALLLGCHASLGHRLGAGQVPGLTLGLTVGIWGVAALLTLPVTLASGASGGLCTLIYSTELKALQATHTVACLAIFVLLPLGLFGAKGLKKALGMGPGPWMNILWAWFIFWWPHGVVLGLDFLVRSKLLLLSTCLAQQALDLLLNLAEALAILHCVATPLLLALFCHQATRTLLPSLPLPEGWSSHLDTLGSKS

[4] = test system: chemokine-induced THP-1 migration (MCP-1, MIP1α, IL8, SDF1α); assay: Trans-well THP-1 migration assay, across the chemokines tested; assay type: cell-based, human
Experimental: To determine whether an agent inhibits a chemokine-induced activity, such as macrophage recruitment, varying amounts of the agent are mixed with cells in the presence of a known chemoattractant. […] Chemokine (such as MCP-1, MIP1α, IL8 or SDF-1α), at a concentration known to cause significant migration of THP-1 cells in the trans-well migration assay, is placed in the lower compartment (FIG. 1). […] After incubation, the cells are gently removed from the top of the filter with a pipette, 20 μl of 20 mM EDTA in simple PBS is added into each top well, and incubated for 20 minutes at 4° C. The filter is carefully flushed with media using a gentle flow, and removed. […] The media is carefully aspirated from each well, and the converted dye is solubilized by 20 μl of DMSO. Absorbance of converted dye is measured at a wavelength of 595 nm using an ELISA plate reader. The number of migrated cells in each well is then determined by interpolation of the standard curve (see also Imai et al., J. Biol. Chem., 272, 15036 (1997)). […] The framed filter was aligned with the holes in the corner of the filter frame and placed over the wells. Five×10^4 THP-1 cells in 25 μl of RPMI-1640 culture media were added to the upper compartment. Peptides were dissolved in Milli Q water and then serially diluted in culture medium. In most cases, the serially diluted peptides were added to the upper compartment of the chemotaxis chamber. […] After incubation, the cells were gently removed from the top of the filter with a pipette, 20 μl of 20 mM EDTA in PBS was added into each top well, and the mixture was incubated for 20 minutes at 4° C. The filter was then carefully flushed with media using a gentle flow, and removed. […] The media was carefully aspirated from each well, and the converted dye was solubilized by 20 μl of DMSO. Absorbance of converted dye was measured at a wavelength of 595 nm using an ELISA plate reader. […] Representative chemokines included a beta-chemokine (“CC”), MIP-1α, and two alpha-chemokines (“CXC”), IL-8 and SDF-1α. […]

EICADPKQKWVQ [Peptide 3] was tested, and the “effect on TGF-beta induced monocyte migration” value ([1]; 100 μM) was “did not affect”, the “Extent of inhibition of human monocyte migration at 100 μM, TGFβ1” value ([1]; Table 4(c), 100 μM peptide, n.s. = no statistically significant inhibition) was “n.s” and the “effect on the co-mitogenic effect of MCP-1 for cultured smooth muscle cells” value [2] was “completely abolished”. For the same sequence, the “DARC binding, in words” value [3] was “low μM concentration range”, the “DUFFY SELECTIVITY” value ([3]; Table 7, estimated ka for binding to red blood cells divided by average inhibitory ED50 versus each of the chemokines) was 1.00 and the “inhibition of migration induced by any of the chemokines of either family” value ([4]; 100 μM, THP-1) was > 99%. The “CC SPECIFICITY” value ([4]; Table 7, average inhibitory ED50 versus SDF1 and IL8 divided by average inhibitory ED50 versus MCP-1 and MIP1α) was 1.5.
